Test results as given in patent publication US7728128B2, “Dibenzo[c,h][1,5]naphthyridines and their use as DNA probes” (Institut National de la Sante et de la Recherche Medicate …, priority 2006, dated 2010).

System: dA/dT and dG/dC homopolymers
Assay: fluorescence and absorption with dA/dT and dG/dC homopolymers
Assay type: binding
Procedure: Plasmid dsDNA was purified using a Qiagen Maxiprep kit and used in the supercoiled form for absorption and fluorescence studies. E. coli total RNA was bought from Ambion, dA/dT and dG/dC homopolymers were purchased from Amersham Biosciences. Calf thymus (CT) high-molecular weight DNA and Hoechst 33258 were obtained from Sigma-Aldrich. Ethidium bromide was purchased from Amresco.
Spectrometry and fluorimetry were performed using a SpectraMax384 (Molecular Devices) and a Luminescence Spectrometer LS50B (Perkin Elmer). Fluorescence emission of compound I in complex with DNA and RNA was measured in 50 mM Na phosphate buffer, pH 7.2 at room temperature. Before use, total E. coli RNA was heated to 100° C. for 1 min and immediately transferred on ice for 5 min before mixing with compound I solution. All measurements were carried out at room temperature (20-23° C.) in solutions protected from light and incubated for ˜10-15 min after dilution. The units of b/dye and bp/dye are defined as moles of RNA bases or DNA base pairs per mole of dye. Quantum yield was measured using quinine sulphate as standard as described in (Iupac Commission on Photochemistry, EPA Newsletter of November 1986, 21-29) using FLUOROMAX-3 Spex Spectrofluorometer (HORIBA) and UVIKON XL Spectrophotometer (SECOMAM).
Many intercalating dyes and minor groove-binding DNA dyes can interact differently with dA/dT or dG/dC DNA tracts. […] To investigate the properties of compound I when bound to different DNA tracts, the inventors examined its fluorescence in admixture with an excess of plasmid DNA and either dA/dT or dG/dC homopolymers. […] The peak at 484 nm was much more pronounced when plasmid DNA was replaced by the dA/dT homopolymers (see also FIG. 1F). […] In FIG. 3C, the graphs show emission spectra upon excitation at 371 nm to allow plotting the emission of free compound I. Similar results were obtained when exciting DNA/compound I complexes at 391 and 435 nm.

## COc1ccc2c(c1)c(C)nc1c3ccc(OC)cc3c(NCCCN(C)C)nc21 [Compound I, N′-(2,8-dimethoxy-12-methyl-dibenzo[c,h][1,5]naphthyridin-6-yl)-N,N-dimethyl-propane-1,3-diamine]
1 μM dye, homopolymer at 40 μM
  reduction of fluorescence peak at 438 nm with dG/dC homopolymer: 12.7 fold
1 μM dye, homopolymers at 40 μM
  fluorescence at 484 nm with dG/dC homopolymer, lower compared to dA/dT: 9.5 fold
dA/dT homopolymers at bp/dye ratio 40
  emission maximum: 484 nm
dye/bp ratio 8, 5 μM dye, emission 484 nm, excitation 435 nm
  difference in fluorescence bound to dA/dT and dG/dC homopolymers: 23 fold
Higher bp/dye ratios
  absorption at 435 nm, dG/dC superior to dA/dT: ~30%
